According to PubChem BioAssay AID2765 (Broad Institute, 2010):
The source made the active and inactive calls.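 The calls were made as follows: active = half-maximal concentration for the rise in caspase light signal at or below ten times the top tested dose; inconclusive = flat fit between 30% and 70% activity, or unreliable curve fit; inactive = the rest.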

tested on: MEF A1-2A-BIM cells, caspase 3/7 luminescence, 3 h; test: caspase activation in A1-2A-BIM MEF cells, dose response, A1 inhibitor project, cell-based, luminescence, retest (AID 2765)

Compound | EC50
COc1ccc(C)cc1S(=O)(=O)n1cnc2ccccc21 | > 35 µM (inactive)
Cc1cc(Cl)ccc1OCC(=O)OCC(=O)c1c(N)n(C)c(=O)n(C)c1=O | > 35 µM (inactive)
COc1ccccc1C(=O)N1CCN(Cc2ccc3c(c2)OCO3)CC1 | > 35 µM (inactive)
Cc1cc(C)c(S(=O)(=O)N2CCCCCC2)cc1Br | > 35 µM (inactive)
Cc1cc(Br)c(OCc2ccc(C(=O)N/N=C/c3ccc[nH]3)cc2)c(Br)c1 | 33.8 µM
CCN1C(=O)/C(=C2\Sc3ccccc3N2CC)OC1=S | > 35 µM (inactive)
CCC1(C(=O)c2ccc(Cl)cc2)C2c3ccccc3OC(=O)C21C(=O)Nc1ccccc1 (stereo not given) | > 35 µM (inactive)
CCOC(=O)/C(=C\c1ccc([N+](=O)[O-])cc1)C(=O)c1cc(C(C)=O)c(Nc2ccccc2)s1 | 1.9 µM
COc1ccc(/C=C2\SC(=O)N(CCC(=O)N(C)C3CCS(=O)(=O)C3)C2=O)cc1 (stereo not given) | > 35 µM (inactive)
Cn1c(O)c(C=NCCN2CCN(C(=O)Nc3ccccc3)CC2)c(=O)n(C)c1=O | > 35 µM (inactive)
O=C(c1ccco1)N1CCN(C(=O)c2cc(-c3ccccn3)nc3ccc(Cl)cc23)CC1 | > 35 µM (inactive)
O=C(Nc1ccc([N+](=O)[O-])cc1)C(Cc1ccccc1)N1C(=O)c2cccc3cccc(c23)C1=O (stereo not given) | > 35 µM (inactive)
COc1ccc(S(N)(=O)=O)cc1C(=O)OCCCOc1ccc(F)cc1 | > 35 µM (inactive)
COc1cc(SC#N)ccc1N=Cc1c(C)[nH]n(-c2ccc(C)cc2)c1=O | > 35 µM (inactive)
O=[N+]([O-])c1ccc(CP(=O)(c2ccccc2)c2ccccc2)cc1 | > 35 µM (inactive)
O=C(Nc1ccc2oc(-c3ccccc3)nc2c1)c1ccccc1F | > 35 µM (inactive)
COC(=O)C(C)Oc1cc(OC(C)C(=O)OC)c2c(-c3ccccc3)cc(=O)oc2c1 (stereo not given) | > 35 µM (inactive)
COc1ccc(C2(C(=O)NCCCN(C)C)CCOCC2)cc1 | > 35 µM (inactive)
CN(CC(=O)Nc1ccccc1Cl)CC(=O)Nc1cccc2ccccc12 | > 35 µM (inactive)
CCc1ccc(N(CC)C(=O)c2cn(C)c(=O)c3ccccc23)cc1 | > 35 µM (inactive)
O=C(Cn1[nH]c(=O)c2ccccc2c1=O)OCC(=O)N1CCc2ccccc2C1 | > 35 µM (inactive)
O=C(Nc1ccc(Cl)cc1Cl)c1cccc(N2C(=O)C=CC2=O)c1 | > 35 µM (inactive)
CCCCCCCCC(=O)NNC(=O)c1c(O)c2ccccc2n(CCC)c1=O | > 35 µM (inactive)
COc1ccc(C2CC(c3c(O)cc(C)oc3=O)=NCCS2)c(OC)c1 (stereo not given) | > 35 µM (inactive)

Compound | EC50
N[C@@]1(C(=O)O)CC[C@@H](C(=O)O)C1 | > 35 µM (inactive)
O=C(O)CCC(=NNC(=O)c1cccc(S(=O)(=O)N2CCCCC2)c1)c1ccccc1 | > 35 µM (inactive)
CN(CC(=O)Nc1ccc(F)cc1)C(=O)c1ccccc1OCc1ccc(F)cc1 | > 35 µM (inactive)
COc1ccc(NC(=O)CN(C)C(=O)/C=C/c2ccc(S(=O)(=O)N3CCCCCC3)cc2)cc1 | > 35 µM (inactive)
CC(=O)Nc1ccc(SCCN2CC[C@@H](C(C)(C)C)CCC2=O)cc1 | > 35 µM (inactive)
CCN(CC)C(=O)Oc1ccc(Br)c2ccccc12 | > 35 µM (inactive)
O=C(CSc1nccc(=O)[nH]1)Nc1ccccc1Sc1ccccc1 | > 35 µM (inactive)
Cc1ccc(NC(=O)CSc2nc3ccc(Nc4nc(N5CCOCC5)nc(N5CCOCC5)n4)cc3s2)cc1 | 14.9 µM
COc1cc(OC)cc(C(=O)N[C@H](C(=O)OCC(=O)Nc2ccc(C)cc2C)C(C)C)c1 | > 35 µM (inactive)
N#C/C(=C/c1ccc(N2CCOCC2)o1)c1ccc(Br)cc1 | > 35 µM (inactive)
Cc1ccc(CSc2ncnc3c2cnn3-c2ccccc2)cc1 | > 35 µM (inactive)
CCOCCCNC(=O)c1ccc2c(c1)N=C(CC)c1cc(Br)ccc1S2 | > 35 µM (inactive)
COc1ccc(C(=O)NNC(=O)CSc2nc3c(c(=O)n(C)c(=O)n3C)n2C)cc1 | > 35 µM (inactive)
O=C(Nc1ccc(Br)cn1)c1cccc2c1-c1ccccc1C2=O | > 35 µM (inactive)
O=[N+]([O-])c1ccccc1S(=O)(=O)N1CCN(S(=O)(=O)c2ccc3c(c2)OCCO3)CC1 | > 35 µM (inactive)
CCOC(=O)Cc1csc(/N=C/c2c(O)n(-c3ccc(C)c(C)c3)c(=O)c3ccccc23)n1 | 9.23 µM
COc1ccc(NS(=O)(=O)c2cccc(C(=O)OCC(=O)c3c(N)n(C)c(=O)n(C)c3=O)c2)cc1 | > 35 µM (inactive)
CCOc1ccc(N2CC(C(=O)NNC(=O)c3ccc(Br)cc3)CC2=O)cc1 (stereo not given) | > 35 µM (inactive)
Cc1cc(NC(=O)COC(=O)C2=NN(c3ccccc3)C(=O)CC2)c([N+](=O)[O-])cc1C | > 35 µM (inactive)
Cc1ccc(C)c(N(C(=O)CCC(=O)Nc2cc(C)on2)C(C(=O)NC2CCCC2)c2ccco2)c1 (stereo not given) | > 35 µM (inactive)
O=C(CCCOc1ccc(Cl)cc1Cl)Nc1ncccn1 | > 35 µM (inactive)
CC1CCc2nn(CC(=O)NCCCN3CCCC3=O)cc2C1 (stereo not given) | > 35 µM (inactive)
CCN(CC)c1ccc2c(c1)oc(=O)c1c(Cl)cc(=O)oc12 | > 35 µM (inactive)
COc1cc2c(cc1OC)C(c1ccccc1Br)NC(=O)C2 (stereo not given) | > 35 µM (inactive)

Compound | EC50
Cc1c(C(=O)NCCN2C(=O)S/C(=C\c3cccs3)C2=O)cccc1[N+](=O)[O-] | > 35 µM (inactive)
CCS(=O)(=O)c1ncc(Cl)c(C(=O)Nc2ccccc2OC)n1 | > 35 µM (inactive)
CCOC(=O)C1=C(c2ccccc2)O/C(=C(/C#N)C(F)(F)F)S1 | > 35 µM (inactive)
COc1ccc(-c2nn(-c3ccccc3)cc2/C=C/C(=O)OCC(=O)Nc2ccccc2C#N)cc1 | 21.2 µM
COc1ccc(-c2ccc(NS(=O)(=O)c3cc([N+](=O)[O-])c(C)c([N+](=O)[O-])c3)cc2)nn1 | > 35 µM (inactive)
CN1C(C(=O)Nc2cccc(O)c2)=CC(c2ccco2)=NS1(=O)=O | > 35 µM (inactive)
CCOC(=O)/C(=C\c1ccc(OC)c(OC)c1)C(=O)c1cccnc1 | > 35 µM (inactive)
Cc1nnc(SCC(=O)NN2C(=O)NC3(CCCCC3)C2=O)s1 | > 35 µM (inactive)
CC(Oc1ccc(-c2nccc(-c3ccccn3)n2)cc1)C(=O)NN (stereo not given) | > 35 µM (inactive)
Cc1cc(Nc2ccc(Cl)cc2)n2ncnc2n1 | > 35 µM (inactive)
COC(=O)CCC(=O)c1ccc(OC)c(Cl)c1 | > 35 µM (inactive)
O=C(O)CCN1CCc2ccccc2C1c1ccncc1 (stereo not given) | > 35 µM (inactive)
Cn1cnc([N+](=O)[O-])c1S(=O)(=O)c1cccc(Cl)c1 | > 35 µM (inactive)
O=C(O)c1ccc2c(c1)C(=O)N(c1ccc(Cl)cn1)C2=O | > 35 µM (inactive)
C=CCNC(=O)c1ccccc1NC(=O)COc1ccccc1 | > 35 µM (inactive)
COc1cc(C(=O)NCc2cc(C)nc3ccccc23)cc(OC)c1OC | > 35 µM (inactive)
O=C(Cc1cccc([N+](=O)[O-])c1)Nc1cccc(C(=O)N2CCOCC2)c1 | > 35 µM (inactive)
O=C(/C=C/c1ccc(Br)cc1)c1ccc(NC2=NCCCS2)cc1 | > 35 µM (inactive)
CCOc1ccccc1NC(=O)CN1C(=O)CSC(C)C1=O (stereo not given) | > 35 µM (inactive)
CC(C)c1ccc(NC(=S)NNC(=O)c2cccs2)cc1 | > 35 µM (inactive)
CCc1ccc(CN/C=C/C(=O)c2ccc(Br)cc2)cc1 | > 35 µM (inactive)
COc1cc(/C=C2/C(=N)N3C=CSC3=NC2=O)ccc1OCCCOc1cc(C)ccc1C | 7.28 µM
O=C(NCCc1ccccc1)C(c1cccs1)N(C(=O)CCl)c1ccc(Cl)cc1 (stereo not given) | 7.95 µM
COc1ccc2sc(N(CCCN(C)C)C(=O)c3ccc(S(=O)(=O)N4CCc5ccccc5C4)cc3)nc2c1 | 29.5 µM

Compound | EC50
COc1ccccc1CNC(=O)COc1ccc([N+](=O)[O-])cc1 | > 35 µM (inactive)
CCOc1ccc(NC(=O)CSc2nnc(Cc3cccn3C)n2-c2ccc(F)cc2)cc1 | > 35 µM (inactive)
CCOC(=O)C(Cc1ccc(N)cc1)N1C(=O)c2ccccc2C1=O (stereo not given) | > 35 µM (inactive)
O=C(CNc1cccc(S(=O)(=O)N2CCCC2)c1)Nc1cccc(C(F)(F)F)c1 | > 35 µM (inactive)
CC(=O)OC[C@]12CC[C@H]3[C@@](C)(CC[C@H]4C(C)(C)CCC[C@]34C)[C@@H]1C[C@@H](C1=CC(=O)O[C@@H]1OC(C)=O)O2 | 4.98 µM
CC(=O)OCCn1c2nc(=O)[nH]c(=O)c-2nc2cc(C)c(C)cc21 | > 35 µM (inactive)
CC(=O)Nc1ccc(S(=O)(=O)N2CCCC3CCCCC32)cc1 (stereo not given) | > 35 µM (inactive)
COc1oc(-c2ccccc2)nc1C(F)(F)F | > 35 µM (inactive)
CC(=O)Nc1ccc(C(=O)CN2C(=O)NC3(CCCc4ccccc43)C2=O)c(F)c1 (stereo not given) | > 35 µM (inactive)
COc1cccc(C(=O)C(C#N)=C(SC)SC)c1 | > 35 µM (inactive)
Cc1c(C(c2ccccc2O)c2c(C)n(C)n(-c3ccccc3)c2=O)c(=O)n(-c2ccccc2)n1C | > 35 µM (inactive)
FC(F)(F)c1ccc(Sc2n[nH]c(C(F)(F)F)n2)nc1 | > 35 µM (inactive)
CC1(C)CC(=O)c2cc3c(N)c(C(=O)NCc4ccccc4)sc3nc2C1 | > 35 µM (inactive)
COc1ccc(N2CC(C(=O)N[C@H](C(=O)NC(C)c3ccccc3)C(C)C)CC2=O)cc1 (stereo not given in full) | > 35 µM (inactive)
Cc1ccc(S(=O)(=O)CC#CCOC(=O)c2ccc([N+](=O)[O-])cc2)cc1 | > 35 µM (inactive)
CC(C)(C)C(=O)CNS(=O)(=O)c1ccc(S(=O)(=O)NC2CC2)cc1 | > 35 µM (inactive)
Cc1nc(NC(=O)CN2CCN(c3cccc(Cl)c3)CC2)sc1C(=O)N(C)C | > 35 µM (inactive)
O=C(O)/C=C/C(=O)Nc1ccc(OC(F)F)cc1 | > 35 µM (inactive)
O=C(O)CCN1C(=O)/C(=C\c2ccncc2)SC1=S | > 35 µM (inactive)
CC(=O)c1ccc(S(=O)(=O)N2CCCCC2C(=O)O)cc1 (stereo not given) | > 35 µM (inactive)
CCn1c(SCC(=O)Nc2ccc(C(C)=O)cc2)nc2c([nH]c3ccccc32)c1=O | 13 µM
Cc1c(Cl)cccc1NC(=O)[C@@]1(CC(=O)O)CC(/C=C/c2ccccc2)=NO1 | > 35 µM (inactive)
O=C(N/N=C/c1ccc(Cl)cc1Cl)c1ccc2nc[nH]c2c1 | > 35 µM (inactive)
